Columns and labels:
[1] = target: T1, CXCR-4 transfected U87 cell line (U87.CXCR4) (Homo sapiens, UniProt P61073); assay: Intracellular CXCL-12-induced calcium mobilization assay (FLIPR); type: cell-based; details: U87.CXCR4 cells; CXCL-12 25-50 ng/mL; compound added 15 min before; read-out: IC50 CXCL-12 Ca^2+ flux U87.CXCR4+
T1 construct: expressed in transfected cells; host or cells: U87 (U87.CXCR4)
Procedure: Example 36: REGA Screening Assay
Intracellular CXCL-12-Induced Calcium Mobilization Assay
Intracellular calcium mobilization induced by chemokines or chemokine-derived peptides were evaluated using a calcium responsive fluorescent probe and a FLIPR system. The CXCR-4 transfected U87 cell line (U87.CXCR4) cells were seeded in gelatine-coated black-wall 96-well plates at 20,000 cells per well and incubated for 12 hours. Cells were then loaded with the fluorescent calcium probe Fluo-2 acetoxymethyl at 4 μM final concentration in assay buffer (Hanks' balanced salt solution with 20 mM HEPES buffer and 0.2% bovine serum albumin, pH 7.4) for 45 min at 37° C. The intracellular calcium mobilization induced by the CXCL-12 (25-50 ng/mL) was then measured at 37° C. by monitoring the fluorescence as a function of time in all the wells simultaneously using a fluorometric imaging plate reader (FLIPR Tetra, Molecular Devices).

[2] = in vitro; details: human, Caco-2, pH 7.4
Procedure: Example 37: Caco-2 Permeability Assay
The goal of this assay was to evaluate the intestinal absorption potential of drug candidates using Caco-2 cell lines.
HBSS buffer with 0.3% DMSO and 5 μM LY: add 150 μL DMSO and 50 μL LY (5 mM) into 50 ml HBSS buffer (pH 7.4).
HBSS buffer with 0.1% DMSO and 5 μM LY: add 50 μL DMSO and 50 μL LY (5 mM) into 50 mL HBSS buffer (pH 7.4).
HBSS buffer with 0.3% DMSO: add 150 μL DMSO into 50 ml HBSS buffer (pH 7.4).
HBSS buffer with 0.1% DMSO: add 50 μL DMSO into 50 ml HBSS buffer (pH 7.4).
Prepare HBSS buffer with 0.4% DMSO: add 200 μL DMSO into 50 ml HBSS buffer (pH 7.4).
Prepare HBSS buffer with 0.4% DMSO and 5 μM LY: add 200 μL DMSO and 50 μL LY (5 mM) into 50 ml HBSS buffer (pH 7.4).
4. Measure TEER Take cell culture plate out of incubator, wash the cell monolayers with HBSS buffer, and then measure TEER values at Rm temperature. 5. Centrifuge Centrifuge the compound solution (from step 3) at 4000 rpm for 5 min before loading to donor chambers. 6. Dosing Add solution based on the volumes listed in the following table (make sure to take extra 100 μL of donor sample for T0 as Backup).
7. Apical LYT0 samples To determine LY concentration in the apical chember, take 100 μL sample from apical chambers into an opaque plate for LYT0. 8. Prewarm Prewarm apical and basolateral plates at 37° C. for about 5 min, then begin transport by placing the apical plate onto basolateral plate. 9. Incubation Keep the plates in incubator at 37° C. for 90 min. 10. Standard Curve preparation
11. Transport termination Separate the apical plate from the basolateral plate after 90-min incubation.
Receiver sample: 60 μL of receiver sample+60 μL ACN with IS (Osalmid or Imipramine)
Study details: Test concentration 10 μM
Test systems: Caco-2/HBSS solution
Incubation conditions: 0, 90 min at 37° C.
Sample size: Duplicates (n=2)
Bioanalytical method: LC-MS/MS
For Millicell-24 Cell Culture Plates: surface area of the membrane=0.7 cm^2, VA=0.8 mL (A-to-B) or 0.4 mL (B-to-A)
1. Papp values were calculated based on calculated concentrations.
The compound numbers correspond to the compound numbers in Table 1.

[3] = target: T2, Jurkat cells expressing CXCR4 (Homo sapiens, UniProt P61073); assay: Chemokine (CXCL12-AF647) binding inhibition assay; details: CXCL12-AF647 25 ng/mL, read-out: IC50 CXCL-12 binding Jurkat
T2 construct: endogenous in cells; host or cells: Jurkat
T2 sequence (P61073 whole entry): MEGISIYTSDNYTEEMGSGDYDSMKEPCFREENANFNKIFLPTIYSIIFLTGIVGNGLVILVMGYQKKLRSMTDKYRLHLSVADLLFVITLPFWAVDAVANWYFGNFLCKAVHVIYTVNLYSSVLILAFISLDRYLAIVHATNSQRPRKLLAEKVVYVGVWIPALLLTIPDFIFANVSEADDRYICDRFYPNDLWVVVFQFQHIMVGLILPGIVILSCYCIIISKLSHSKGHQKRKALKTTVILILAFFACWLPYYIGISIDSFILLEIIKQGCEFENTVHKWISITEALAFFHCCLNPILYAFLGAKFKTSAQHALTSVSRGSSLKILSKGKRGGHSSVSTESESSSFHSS
Procedure: Chemokine (CXCL12-AF647) Binding Inhibition Assay
Jurkat cells expressing CXCR4 were washed once with assay buffer (Hanks' balanced salt solution with 20 mM HEPES buffer and 0.2% bovine serum albumin, pH 7.4) and then incubated for 15 min at room temperature with the test compounds diluted in assay buffer at dose-dependent concentrations. Subsequently, CXCL12-AF647 (25 ng/mL) was added to the compound-incubated cells. The cells were incubated for 30 min at room temperature. Thereafter, the cells were washed twice in assay buffer, fixed in 1% paraformaldehyde in PBS, and analyzed on the FL4 channel of a FACSCalibur flow cytometer equipped with a 635-nm red diode laser (Becton Dickinson, San Jose, Calif., USA).
The percentages of inhibition of CXCL12-AF647 binding were calculated according to the formula: [1−((MFI−MFINC)/(MFIPC−MFINC))]×100 where MFI is the mean fluorescence intensity of the cells incubated with CXCL12-AF647 in the presence of the inhibitor, MFINC is the mean fluorescence intensity measured in the negative control (i.e., autofluorescence of unlabeled cells), and MFIPC is the mean fluorescence intensity of the positive control (i.e., cells exposed to CXCL12-AF647 alone).

T1 sequence (P61073 whole entry): as above

Structure (SMILES) | IC50 [1] [nM] | Papp A→B at 90 min, 10 μM [2] [×10⁻⁶ cm/s] | Papp B→A at 90 min, 10 μM [2] [×10⁻⁶ cm/s] | efflux ratio at 90 min, 10 μM [2] | IC50 [3] [nM]
Cc1cccnc1[C@@H]1CCC[C@H](c2nccn2CCn2cccn2)N1 [I-176] | ≥ 1000 | 10 to 30 | > 30 | 0.1 to 10 | ≥ 1000
COc1cccnc1[C@@H]1CCC[C@H](c2nc3cccc(N4CCN(C)CC4)c3[nH]2)N1C [I-62] | 0.01 to 100 | 0.1 to 10 | 10 to 30 | 0.1 to 10 | 0.01 to 100
CN1CC2CCC(C1)N2c1cccc2nc([C@H]3CCC[C@@H](c4ncccc4Cl)N3)[nH]c12 [I-121] | 0.01 to 100 | 10 to 30 | 10 to 30 | 0.1 to 10 | 0.01 to 100
Cc1cccnc1[C@@H]1CCC[C@H](c2nc3ccccc3n2CC2CCCN(C)C2)N1C (stereo partly drawn) [I-13, 2-((2R,6S)-1-methyl-6-(3-methylpyridin-2-yl)piperidin-2-yl)-1-((1-methylpiperidin-3-yl)methyl)-1H-benzo[d]imidazole] | 0.01 to 100 | 0.1 to 10 | 10 to 30 | 0.1 to 10 | 0.01 to 100
Cc1cccnc1[C@@H]1CCC[C@H](c2nc3cccc(N4C[C@@H](C)N[C@@H](C)C4)c3[nH]2)N1C [I-51] | 0.01 to 100 | 0.1 to 10 | 10 to 30 | 0.1 to 10 | 0.01 to 100
Cc1cccnc1[C@@H]1CCC[C@H](c2nc3ccccc3n2CCC#N)N1 [I-159] | ≥ 1000 | 10 to 30 | 10 to 30 | 0.1 to 10 | ≥ 1000
CCc1cccnc1[C@@H]1CCC[C@H](c2nc3cccc(N4CCN(C)CC4)c3[nH]2)N1C [I-114] | 0.01 to 100 | 10 to 30 | 10 to 30 | 0.1 to 10 | 0.01 to 100
CN1CCN(c2cccc3nc([C@H]4CCC[C@@H](c5ncccc5OC5CC5)N4C)[nH]c23)CC1 [I-72] | ≥ 1000 | 10 to 30 | 10 to 30 | 0.1 to 10 | 100 to 1000
Cc1cccnc1[C@@H]1CCC[C@H](c2nc3ccccc3n2Cc2ccccc2-n2cccn2)N1 [I-161] | ≥ 1000 | > 30 | > 30 | 0.1 to 10 | 100 to 1000
Cc1cccnc1[C@@H]1CCC[C@H](c2nc3cccc(N4C5CCC4CN(C)C5)c3[nH]2)N1C [I-57] | 0.01 to 100 | 10 to 30 | 10 to 30 | 0.1 to 10 | 0.01 to 100
Cc1ccnc([C@@H]2CCC[C@H](c3nc4cccc(N5CCN(C)CC5)c4[nH]3)N2C)c1 [I-71] | ≥ 1000 | 10 to 30 | 10 to 30 | 0.1 to 10 | 100 to 1000
Cc1cccnc1[C@@H]1CCC[C@H](c2nccn2CCc2ccccn2)N1 [I-177] | ≥ 1000 | 10 to 30 | 10 to 30 | 0.1 to 10 | ≥ 1000
Cc1cccnc1[C@@H]1CCC[C@H](c2nc3ccccc3n2CCn2cccn2)N1C [I-7, 1-(2-(1H-pyrazol-1-yl)ethyl)-2-((2R,6S)-1-methyl-6-(3-methylpyridin-2-yl)piperidin-2-yl)-1H-benzo[d]imidazole] | ≥ 1000 | 10 to 30 | 10 to 30 | 0.1 to 10 | 0.01 to 100
CN(C)C1CCN(c2cccc3nc([C@H]4CCC[C@@H](c5ncccc5Cl)N4C)[nH]c23)CC1 [I-97] | ≥ 1000 | 10 to 30 | 10 to 30 | 0.1 to 10 | 0.01 to 100
Cc1cccnc1[C@@H]1CCC[C@H](c2nc3c(N4CCN(C)CC4)cccc3n2C)N1C [I-36] | ≥ 1000 | 10 to 30 | 10 to 30 | 0.1 to 10 | ≥ 1000
CC(C)N1CCN(c2cccc3nc([C@H]4CCC[C@@H](c5ncccc5Cl)N4)[nH]c23)CC1 [I-148] | 0.01 to 100 | 10 to 30 | 10 to 30 | 0.1 to 10 | 0.01 to 100
Cc1cccnc1[C@@H]1CCC[C@H](c2nccn2CCCN(C)C)N1C [I-165, N,N-dimethyl-3-(2-((2R,6S)-1-methyl-6-(3-methylpyridin-2-yl)piperidin-2-yl)-1H-imidazol-1-yl)propan-1-amine] | 100 to 1000 | 0.1 to 10 | 10 to 30 | 0.1 to 10 | 0.01 to 100
CN1CCN(c2cccc3nc([C@H]4CCC[C@@H](c5ncccc5Cl)N4)[nH]c23)CC12CC2 [I-133] | ≥ 1000 | 10 to 30 | 10 to 30 | 0.1 to 10 | 0.01 to 100
Cc1cccnc1[C@@H]1CCC[C@H](c2nc3ccccc3n2CCCCN2CCC(F)(F)CC2)N1C [I-41] | ≥ 1000 | 0.1 to 10 | 0.1 to 10 | 0.1 to 10 | 0.01 to 100
Cc1cccnc1[C@@H]1CCC[C@H](c2nc3cccc(N4CCN(C)CC4=O)c3[nH]2)N1C [I-73] | 100 to 1000 | 0.1 to 10 | 10 to 30 | > 30 | 0.01 to 100
Cc1cccnc1[C@@H]1CCC[C@H](c2nc3cccc(N4CCNC(C)(C)C4)c3[nH]2)N1C [I-52] | 0.01 to 100 | 0.1 to 10 | 10 to 30 | 10 to 30 | 0.01 to 100
Cc1cccnc1[C@@H]1CCC[C@H](c2nccn2C2CCN(C3CC3)CC2)N1C [I-174] | 100 to 1000 | 10 to 30 | 10 to 30 | 0.1 to 10 | 0.01 to 100
Clc1cccnc1[C@@H]1CCC[C@H](c2nc3cccc(N4CCN(C5CC5)CC4)c3[nH]2)N1 [I-143] | 0.01 to 100 | 10 to 30 | 10 to 30 | 0.1 to 10 | 0.01 to 100
Cc1cccnc1[C@@H]1CCC[C@H](c2nc3cccc(C4CCN(C)CC4)c3[nH]2)N1 [I-151] | 0.01 to 100 | 0.1 to 10 | 10 to 30 | 0.1 to 10 | 0.01 to 100
CN1CCN(c2cccc3nc([C@H]4CCC[C@@H](c5ncccc5OC(F)(F)F)N4C)[nH]c23)CC1 [I-63] | 0.01 to 100 | 10 to 30 | 0.1 to 10 | 0.1 to 10 | 100 to 1000

Reference: patent publication US10988465B2, “CXCR4 inhibitors and uses thereof” (X4 Pharmaceuticals, Inc., priority 2016, dated 2021)
